These results are taken from ChEMBL document CHEMBL4507319 (2021).

What is called IC50 is the midpoint of a concentration-inhibition curve. A high value points to weaker potency in that assay.

Test [1] concerns the target T1, Aurora kinase A (Homo sapiens) (UniProt O14965).
T1 sequence (whole entry): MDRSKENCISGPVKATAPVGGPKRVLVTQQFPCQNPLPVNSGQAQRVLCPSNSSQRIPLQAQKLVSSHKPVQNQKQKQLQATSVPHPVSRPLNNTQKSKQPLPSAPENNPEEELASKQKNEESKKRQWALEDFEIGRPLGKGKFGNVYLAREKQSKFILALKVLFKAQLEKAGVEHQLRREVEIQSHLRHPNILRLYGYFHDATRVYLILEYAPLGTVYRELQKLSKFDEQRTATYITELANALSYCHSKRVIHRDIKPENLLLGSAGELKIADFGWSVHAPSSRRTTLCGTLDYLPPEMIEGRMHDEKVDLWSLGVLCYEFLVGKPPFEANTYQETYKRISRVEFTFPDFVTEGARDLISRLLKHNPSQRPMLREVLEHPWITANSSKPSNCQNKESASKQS
Briefly: (§1) Aurora-A(h) Eurofins kinase panel. The conditions noted are these: Compound concentration 1.0 uM.

Another test deals with Aurora kinase A (Homo sapiens, UniProt O14965). The description is as §1.
For test [2], the target named is Calcium/calmodulin-dependent protein kinase type II subunit beta (Homo sapiens) (UniProt Q13554). The experiment in a line: CaMKIIbeta(h) Eurofins kinase panel. The conditions noted are these: Compound concentration 1.0 uM.
Sequence of Calcium/calmodulin-dependent protein kinase type II subunit beta (Homo sapiens) (Q13554 whole entry): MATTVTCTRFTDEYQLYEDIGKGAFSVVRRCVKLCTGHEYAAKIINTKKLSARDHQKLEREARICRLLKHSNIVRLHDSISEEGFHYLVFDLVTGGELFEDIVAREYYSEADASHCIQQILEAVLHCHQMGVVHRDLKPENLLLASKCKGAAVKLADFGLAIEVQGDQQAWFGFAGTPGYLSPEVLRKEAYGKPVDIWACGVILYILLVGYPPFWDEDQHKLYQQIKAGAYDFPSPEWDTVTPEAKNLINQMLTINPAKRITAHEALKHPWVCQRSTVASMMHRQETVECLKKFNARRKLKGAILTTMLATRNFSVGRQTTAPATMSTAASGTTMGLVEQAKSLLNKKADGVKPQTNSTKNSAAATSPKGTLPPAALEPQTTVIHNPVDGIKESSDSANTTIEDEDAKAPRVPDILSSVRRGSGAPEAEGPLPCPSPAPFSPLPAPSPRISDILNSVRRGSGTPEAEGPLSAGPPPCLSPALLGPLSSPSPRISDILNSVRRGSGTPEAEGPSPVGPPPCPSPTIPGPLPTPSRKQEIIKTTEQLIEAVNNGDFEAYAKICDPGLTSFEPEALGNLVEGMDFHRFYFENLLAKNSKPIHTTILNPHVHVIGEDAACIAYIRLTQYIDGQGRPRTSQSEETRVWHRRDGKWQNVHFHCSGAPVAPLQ
The target in test [3] is Casein kinase II subunit alpha (Homo sapiens) (UniProt P68400). Briefly: CK2alpha1(h) Eurofins kinase panel. The conditions noted are these: Compound concentration 1.0 uM.
Sequence of Casein kinase II subunit alpha (Homo sapiens) (P68400 whole entry, looked up): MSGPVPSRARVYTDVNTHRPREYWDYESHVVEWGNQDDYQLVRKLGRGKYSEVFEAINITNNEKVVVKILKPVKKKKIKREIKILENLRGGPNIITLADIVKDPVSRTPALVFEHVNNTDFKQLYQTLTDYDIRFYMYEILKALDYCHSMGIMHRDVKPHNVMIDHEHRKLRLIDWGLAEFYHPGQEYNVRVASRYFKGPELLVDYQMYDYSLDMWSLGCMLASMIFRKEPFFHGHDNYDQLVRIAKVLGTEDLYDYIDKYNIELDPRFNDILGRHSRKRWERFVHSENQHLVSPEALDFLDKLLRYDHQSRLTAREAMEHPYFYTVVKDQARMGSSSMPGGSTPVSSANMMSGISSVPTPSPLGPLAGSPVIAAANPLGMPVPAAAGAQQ
Test [4] addresses Dual specificity tyrosine-phosphorylation-regulated kinase 1B (Homo sapiens) (UniProt Q9Y463). Briefly: DYRK1B(h) Eurofins kinase panel. The conditions noted are these: Compound concentration 1.0 uM.
Test [5] addresses Vascular endothelial growth factor receptor 1 (Homo sapiens) (UniProt P17948). The experiment in a line: Flt1(h) Eurofins kinase panel. The note with it: Compound concentration 1.0 uM.
Test [6] has as its target T2, Rhodopsin kinase GRK7 (Homo sapiens) (UniProt Q8WTQ7).
T2 sequence (whole entry): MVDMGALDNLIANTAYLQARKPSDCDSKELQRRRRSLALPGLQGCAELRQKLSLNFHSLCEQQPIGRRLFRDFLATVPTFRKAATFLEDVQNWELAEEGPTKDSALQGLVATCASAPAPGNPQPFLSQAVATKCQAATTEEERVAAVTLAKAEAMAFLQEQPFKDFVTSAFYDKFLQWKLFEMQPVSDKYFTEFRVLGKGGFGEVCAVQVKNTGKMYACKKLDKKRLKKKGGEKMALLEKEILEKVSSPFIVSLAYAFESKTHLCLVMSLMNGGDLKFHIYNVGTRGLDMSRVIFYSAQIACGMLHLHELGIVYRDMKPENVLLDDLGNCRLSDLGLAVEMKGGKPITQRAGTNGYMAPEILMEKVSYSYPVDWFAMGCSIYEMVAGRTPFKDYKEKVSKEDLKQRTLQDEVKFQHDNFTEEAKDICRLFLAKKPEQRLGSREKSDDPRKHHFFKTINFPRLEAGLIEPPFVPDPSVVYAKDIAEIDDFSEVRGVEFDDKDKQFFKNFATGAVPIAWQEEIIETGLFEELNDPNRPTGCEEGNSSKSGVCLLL
Briefly: GRK7(h) Eurofins kinase panel. The note with it: Compound concentration 1.0 uM.

The target of test [7] is T3, Serine/threonine-protein kinase haspin (Homo sapiens) (UniProt Q8TF76).
T3 sequence (whole entry): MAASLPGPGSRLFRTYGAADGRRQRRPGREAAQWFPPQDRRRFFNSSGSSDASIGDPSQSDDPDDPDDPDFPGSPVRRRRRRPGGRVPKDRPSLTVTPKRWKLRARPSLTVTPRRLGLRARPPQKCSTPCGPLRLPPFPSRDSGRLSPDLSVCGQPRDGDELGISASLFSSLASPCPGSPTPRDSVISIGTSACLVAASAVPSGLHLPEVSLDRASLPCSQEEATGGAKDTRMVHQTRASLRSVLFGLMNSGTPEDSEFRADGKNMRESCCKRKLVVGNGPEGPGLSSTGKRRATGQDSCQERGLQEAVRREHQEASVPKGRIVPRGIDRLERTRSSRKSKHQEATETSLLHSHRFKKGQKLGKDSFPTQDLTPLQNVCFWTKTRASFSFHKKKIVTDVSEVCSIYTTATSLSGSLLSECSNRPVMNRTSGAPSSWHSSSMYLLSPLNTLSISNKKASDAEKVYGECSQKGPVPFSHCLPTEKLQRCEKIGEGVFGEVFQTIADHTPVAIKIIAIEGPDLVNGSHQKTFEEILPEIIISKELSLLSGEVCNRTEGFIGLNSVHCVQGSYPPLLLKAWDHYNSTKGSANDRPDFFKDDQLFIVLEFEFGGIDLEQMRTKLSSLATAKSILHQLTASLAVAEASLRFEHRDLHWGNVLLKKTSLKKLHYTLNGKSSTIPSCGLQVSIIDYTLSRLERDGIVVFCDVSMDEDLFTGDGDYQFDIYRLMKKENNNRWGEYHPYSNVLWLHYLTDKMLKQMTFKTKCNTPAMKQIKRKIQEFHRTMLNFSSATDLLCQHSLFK
The experiment in a line: Haspin(h) Eurofins kinase panel. The conditions noted are these: Compound concentration 1.0 uM.

Test [8] has as its target Dual specificity mitogen-activated protein kinase kinase 2 (Homo sapiens) (UniProt P36507). Briefly: MEK2(h) Eurofins kinase panel. The conditions noted are these: Compound concentration 1.0 uM.
Test [9] concerns the target Serine/threonine-protein kinase Nek6 (Homo sapiens) (UniProt Q9HC98). The experiment in a line: NEK6(h) Eurofins kinase panel. The note with it: Compound concentration 1.0 uM.
Test [10] deals with T4, NUAK family SNF1-like kinase 2 (Homo sapiens) (UniProt Q9H093).
T4 sequence (whole entry): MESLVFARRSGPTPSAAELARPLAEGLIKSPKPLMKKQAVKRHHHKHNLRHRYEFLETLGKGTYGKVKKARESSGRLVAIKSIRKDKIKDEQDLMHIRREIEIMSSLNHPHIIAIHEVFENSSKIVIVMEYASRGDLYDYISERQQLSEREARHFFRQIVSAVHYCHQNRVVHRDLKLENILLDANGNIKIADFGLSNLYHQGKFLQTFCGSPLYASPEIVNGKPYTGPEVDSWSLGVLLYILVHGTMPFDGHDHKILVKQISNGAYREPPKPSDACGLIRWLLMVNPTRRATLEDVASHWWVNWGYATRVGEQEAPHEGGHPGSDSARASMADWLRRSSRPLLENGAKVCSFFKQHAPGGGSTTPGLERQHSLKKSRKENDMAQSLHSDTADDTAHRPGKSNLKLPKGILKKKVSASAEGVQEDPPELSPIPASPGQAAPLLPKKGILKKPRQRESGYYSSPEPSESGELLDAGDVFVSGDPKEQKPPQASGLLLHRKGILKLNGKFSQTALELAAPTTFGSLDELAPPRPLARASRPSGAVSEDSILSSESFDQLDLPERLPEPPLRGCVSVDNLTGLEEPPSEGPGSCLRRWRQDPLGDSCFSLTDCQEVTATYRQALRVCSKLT
Briefly: NUAK2(h) Eurofins kinase panel. The conditions noted are these: Compound concentration 1.0 uM.

Test [11] has as its target Tau-tubulin kinase 2 (Homo sapiens) (UniProt Q6IQ55). The experiment in a line: TTBK2(h) Eurofins kinase panel. The note with it: Compound concentration 1.0 uM.
The next test relates to LP-1. The experiment in a line: LP-1 cell line Proliferation assay. The note with it: time 3 day. The format is functional, Homo sapiens.
The next test concerns U-251. Briefly: U251 cell line Proliferation assay. The format is functional, Homo sapiens. The conditions noted are these: time 3 day.

Sequence of Serine/threonine-protein kinase Nek6 (Homo sapiens) (Q9HC98 whole entry): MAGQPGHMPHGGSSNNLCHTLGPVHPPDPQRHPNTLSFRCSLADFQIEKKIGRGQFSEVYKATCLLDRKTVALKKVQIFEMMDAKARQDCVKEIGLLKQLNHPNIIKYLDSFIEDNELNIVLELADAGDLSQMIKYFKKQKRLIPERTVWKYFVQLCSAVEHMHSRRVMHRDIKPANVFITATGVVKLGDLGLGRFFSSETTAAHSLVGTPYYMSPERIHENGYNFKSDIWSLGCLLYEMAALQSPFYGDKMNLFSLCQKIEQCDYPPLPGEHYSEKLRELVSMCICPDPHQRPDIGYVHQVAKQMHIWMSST
Sequence of Dual specificity mitogen-activated protein kinase kinase 2 (Homo sapiens) (P36507 whole entry): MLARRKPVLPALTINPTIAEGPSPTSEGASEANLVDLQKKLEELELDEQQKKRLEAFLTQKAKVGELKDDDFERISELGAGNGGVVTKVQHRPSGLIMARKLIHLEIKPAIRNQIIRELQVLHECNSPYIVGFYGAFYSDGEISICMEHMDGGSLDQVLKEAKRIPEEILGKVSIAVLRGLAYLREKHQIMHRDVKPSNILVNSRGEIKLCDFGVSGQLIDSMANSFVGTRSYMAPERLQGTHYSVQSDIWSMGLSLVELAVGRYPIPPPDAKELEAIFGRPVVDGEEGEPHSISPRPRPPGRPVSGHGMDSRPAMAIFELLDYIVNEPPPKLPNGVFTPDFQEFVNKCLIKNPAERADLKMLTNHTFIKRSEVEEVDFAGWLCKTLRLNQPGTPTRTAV
Sequence of Vascular endothelial growth factor receptor 1 (Homo sapiens) (P17948 whole entry): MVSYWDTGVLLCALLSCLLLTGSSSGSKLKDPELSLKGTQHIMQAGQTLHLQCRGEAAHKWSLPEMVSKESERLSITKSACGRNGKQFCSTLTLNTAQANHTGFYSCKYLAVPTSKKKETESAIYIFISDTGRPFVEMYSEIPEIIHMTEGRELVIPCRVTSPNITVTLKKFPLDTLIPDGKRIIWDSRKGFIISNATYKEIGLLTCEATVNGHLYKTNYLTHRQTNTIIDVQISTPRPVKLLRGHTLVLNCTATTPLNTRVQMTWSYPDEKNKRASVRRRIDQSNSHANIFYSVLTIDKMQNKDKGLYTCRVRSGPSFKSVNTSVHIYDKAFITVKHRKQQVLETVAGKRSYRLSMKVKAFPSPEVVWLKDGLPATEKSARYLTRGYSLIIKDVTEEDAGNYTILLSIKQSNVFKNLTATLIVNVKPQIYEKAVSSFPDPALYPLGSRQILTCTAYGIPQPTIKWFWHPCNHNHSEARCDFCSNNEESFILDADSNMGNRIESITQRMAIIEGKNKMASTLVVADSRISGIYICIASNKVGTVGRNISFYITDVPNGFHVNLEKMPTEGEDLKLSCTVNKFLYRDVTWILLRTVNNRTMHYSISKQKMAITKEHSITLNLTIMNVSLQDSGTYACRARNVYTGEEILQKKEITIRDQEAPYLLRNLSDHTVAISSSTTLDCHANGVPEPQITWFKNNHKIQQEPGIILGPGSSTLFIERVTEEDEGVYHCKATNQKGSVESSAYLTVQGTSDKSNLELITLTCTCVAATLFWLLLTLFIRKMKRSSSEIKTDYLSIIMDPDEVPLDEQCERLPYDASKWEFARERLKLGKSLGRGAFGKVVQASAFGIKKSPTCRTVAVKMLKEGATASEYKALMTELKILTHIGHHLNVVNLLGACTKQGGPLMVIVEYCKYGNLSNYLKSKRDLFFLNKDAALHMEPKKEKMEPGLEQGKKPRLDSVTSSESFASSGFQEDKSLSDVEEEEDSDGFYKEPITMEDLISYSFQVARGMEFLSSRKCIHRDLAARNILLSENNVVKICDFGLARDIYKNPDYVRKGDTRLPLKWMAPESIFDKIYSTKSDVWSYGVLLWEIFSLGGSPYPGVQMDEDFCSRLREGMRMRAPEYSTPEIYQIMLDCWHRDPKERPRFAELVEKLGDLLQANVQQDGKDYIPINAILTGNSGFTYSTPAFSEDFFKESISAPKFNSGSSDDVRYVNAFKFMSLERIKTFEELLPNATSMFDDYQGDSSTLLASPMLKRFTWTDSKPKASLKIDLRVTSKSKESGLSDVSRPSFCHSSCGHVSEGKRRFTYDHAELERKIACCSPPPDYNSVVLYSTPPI
Sequence of Dual specificity tyrosine-phosphorylation-regulated kinase 1B (Homo sapiens) (Q9Y463 whole entry, looked up): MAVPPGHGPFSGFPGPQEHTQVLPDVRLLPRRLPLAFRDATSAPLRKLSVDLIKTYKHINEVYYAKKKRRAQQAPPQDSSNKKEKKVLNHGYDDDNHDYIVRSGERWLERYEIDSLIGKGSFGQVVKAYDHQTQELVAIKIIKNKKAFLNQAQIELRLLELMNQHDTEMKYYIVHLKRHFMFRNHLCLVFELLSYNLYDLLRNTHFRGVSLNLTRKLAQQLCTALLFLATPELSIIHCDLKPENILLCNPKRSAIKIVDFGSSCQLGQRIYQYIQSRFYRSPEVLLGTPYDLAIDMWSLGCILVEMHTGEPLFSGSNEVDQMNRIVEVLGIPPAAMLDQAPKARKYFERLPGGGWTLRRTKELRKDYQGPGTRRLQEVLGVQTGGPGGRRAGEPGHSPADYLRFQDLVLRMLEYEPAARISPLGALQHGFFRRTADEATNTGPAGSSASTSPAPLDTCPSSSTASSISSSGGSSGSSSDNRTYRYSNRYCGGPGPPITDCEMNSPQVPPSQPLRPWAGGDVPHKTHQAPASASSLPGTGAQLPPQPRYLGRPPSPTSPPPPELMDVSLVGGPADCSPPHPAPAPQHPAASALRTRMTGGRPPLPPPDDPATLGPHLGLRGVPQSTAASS
Sequence of Tau-tubulin kinase 2 (Homo sapiens) (Q6IQ55 whole entry): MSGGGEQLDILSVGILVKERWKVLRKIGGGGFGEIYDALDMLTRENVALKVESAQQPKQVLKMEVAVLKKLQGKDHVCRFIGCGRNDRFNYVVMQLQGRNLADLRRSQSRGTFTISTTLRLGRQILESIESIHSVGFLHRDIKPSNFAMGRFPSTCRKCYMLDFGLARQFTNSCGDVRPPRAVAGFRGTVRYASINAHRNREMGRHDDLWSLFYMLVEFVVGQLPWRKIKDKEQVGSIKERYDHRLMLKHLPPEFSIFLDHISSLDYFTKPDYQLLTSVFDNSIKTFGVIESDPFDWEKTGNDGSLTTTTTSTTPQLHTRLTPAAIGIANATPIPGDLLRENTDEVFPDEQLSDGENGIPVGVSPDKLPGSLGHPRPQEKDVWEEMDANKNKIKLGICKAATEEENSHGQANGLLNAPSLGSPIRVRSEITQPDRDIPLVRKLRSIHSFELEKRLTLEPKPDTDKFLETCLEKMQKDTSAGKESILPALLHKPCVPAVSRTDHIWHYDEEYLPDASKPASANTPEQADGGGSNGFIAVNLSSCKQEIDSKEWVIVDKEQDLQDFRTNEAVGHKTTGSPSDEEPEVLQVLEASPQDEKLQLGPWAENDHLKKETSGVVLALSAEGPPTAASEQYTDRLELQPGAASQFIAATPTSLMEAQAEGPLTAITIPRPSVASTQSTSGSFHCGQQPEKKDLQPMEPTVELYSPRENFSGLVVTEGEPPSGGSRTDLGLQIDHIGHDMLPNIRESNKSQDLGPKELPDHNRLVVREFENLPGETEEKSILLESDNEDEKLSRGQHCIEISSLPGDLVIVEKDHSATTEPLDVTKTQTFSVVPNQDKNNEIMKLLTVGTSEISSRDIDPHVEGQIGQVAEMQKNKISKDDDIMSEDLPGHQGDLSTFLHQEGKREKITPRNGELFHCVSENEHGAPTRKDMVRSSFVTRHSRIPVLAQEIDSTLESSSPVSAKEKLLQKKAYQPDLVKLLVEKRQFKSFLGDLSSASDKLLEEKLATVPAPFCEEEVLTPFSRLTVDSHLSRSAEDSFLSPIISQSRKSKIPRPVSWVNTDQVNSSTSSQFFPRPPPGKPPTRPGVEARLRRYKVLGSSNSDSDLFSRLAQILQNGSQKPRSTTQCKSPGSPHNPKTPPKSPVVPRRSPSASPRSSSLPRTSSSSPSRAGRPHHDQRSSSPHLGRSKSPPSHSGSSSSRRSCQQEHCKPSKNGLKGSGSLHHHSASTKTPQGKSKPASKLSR

With `CCc1ccccc1C(=O)Nc1n[nH]c2c(C)c(F)c(C3C(C#N)=C(C)N(C)C(C)=C3C#N)cc12` [BAY-3827], the % residual kinase activity in test [1] was 34%; in test [2] it was 100%; in test [3], 93%; in test [4] it was 99%; in [5] it was 96%; in [6] it was 78%. Besides, the % residual kinase activity was 107% in [7]; 112% in test [8]; 94% in [9]; 45% in test [10]; 108% in [11]. At Aurora kinase A, this compound gave an IC50 of 480 nM. For the same compound, the “Cell Proliferation IC50” value stood at 1.9 µM with LP-1 and 20.9 µM with U-251.
